Data: US6403554B2, “Polyunsaturated fatty acid derivatives and their use” (Ardenia Investments Ltd., priority 1998, dated 2002)
“Also recorded” adds a separate entry of the source.

What was measured:
human AFP = target: T1, human AFP (Homo sapiens, UniProt P02771); assay: AFP binding: competitive substitution of [3H]arachidonic acid from the protein's binding site
T1 construct: from tissue; host or cells: human cord blood
Experimental: To tubes containing […] AFP in 1 ml 0.1 M bicarbonate buffer and 0.7 pmol [^3H]arachidonic acid and increasing amounts (5-5000 pmol) of arachidonic acid or any one of the title compounds 1-4, 1a-4a, and 5-20 were added. The tubes were incubated for 2 hr at room temperature. To separate protein-bound and free fractions of [^3H] arachidonic acid, tubes were incubated at 4° C. for 15 min with dextran covered activated carbon (0.5% suspension). The carbon was sedimented by centrifugation at 3000×g, aliquotes were added to 10 ml scintillating mixture and the vials were measured in a beta-counter.
The binding parameters of arachidonic acid and the compounds (1-4, 1a-4a, 5-16) the number of binding sites per protein molecule were calculated according to Scatchard (Scatchard O., Ann.N.Y.Acad.Sci. 51., p 660-664, 1949), and Blondeau (Blondeau J.-P., et al., Steroids, V. 32, N 5, P. 563-575, 1978).

[1] = system: antibody-forming cells (AFC) in the spleen; assay: Influence of rat AFP/compound complex and compound alone on humoral immune response, C57B1/6 male mice; type: in vivo; conditions: compound alone, 5th day
Experimental: (§1) The influence of complexes of AFP with one of the title compounds 1-4, 1a-4a, 5-20 as well as their basic components on humoral immune response was estimated by counting the quantity of antibody-forming cells (AFC) in the mice spleen.
0.15 ml of AFP/Compound 7 complex (1:200) was administered intravenously to 6 male mice of C57B1/6 line (weight 18-22 g) in the dose of 9 μg of AFP and 91 μg of compound 7 per capita. Simultaneously, a suspension of 5·10^7 sheep erythrocytes was injected intraperitoneally (0.2 ml per capita). In the group with compound 7 mice were injected intravenously by one in the dose of 91 μg. Animals of group with AFP received 9 μg of AFP. Mice of control group were injected intravenously with equal volume of saline. AFP/Compound 7 complex effect on humoral immune response was analyzed by counting the quantity of AFC in the spleen according to Cunningham (per 10^6 spleen cells and per spleen).
0.15 ml of AFP/Compound 15 complex (1:200) was administered intravenously to 6 mice males of C57B1/6 line (weight 18-22 g) in the dose of 9 μg of AFP and 91 μg of compound 15 per capita. Simultaneously, a suspension of 5·10^7 sheep erythrocytes was injected intraperitoneally (0.2 ml per capita). In the group receiving compound 15, the mice were injected intravenously by one in the dose of 91 μg. Animals in the AFP-group received 9 μg of AFP. Mice in the control group were injected intravenously with an equal volume of saline. The effect of the AFP/Compound 15 complex on humoral immune response was analyzed by counting the quantity of AFC in the spleen according to Cunningham (per 10^6 spleen cells and per spleen).
(§2) 0.15 ml of AFP/Compound 1 complex was administered intravenously to 6 mice males of C57B1/6 line (weight 18-22 g) in the dose of 9 μg of AFP and 45.5 μg of compound 1 per capita. Simultaneously, a suspension of 5·10^7 sheep erythrocytes was injected intraperitoneally (0.2 ml per capita). In the group with compound 1 mice were injected intravenously by one in the dose of 45.5 μg. Animals of group with AFP received 9 μg of AFP. Mice in the control group were injected intravenously with an equal volume of saline. Complex AFP/Compound 1 effect on humoral immune response was analyzed by counting the quantity of AFC in the spleen according to Cunningham (per 10^6 spleen cells and per spleen).

AFP = target: T2, AFP (Homo sapiens, UniProt P02771); conditions: International Application PCT/EP99/04201; cited from earlier work
T2 construct: from tissue; host or cells: human cord blood
T2 sequence (P02771 19-609): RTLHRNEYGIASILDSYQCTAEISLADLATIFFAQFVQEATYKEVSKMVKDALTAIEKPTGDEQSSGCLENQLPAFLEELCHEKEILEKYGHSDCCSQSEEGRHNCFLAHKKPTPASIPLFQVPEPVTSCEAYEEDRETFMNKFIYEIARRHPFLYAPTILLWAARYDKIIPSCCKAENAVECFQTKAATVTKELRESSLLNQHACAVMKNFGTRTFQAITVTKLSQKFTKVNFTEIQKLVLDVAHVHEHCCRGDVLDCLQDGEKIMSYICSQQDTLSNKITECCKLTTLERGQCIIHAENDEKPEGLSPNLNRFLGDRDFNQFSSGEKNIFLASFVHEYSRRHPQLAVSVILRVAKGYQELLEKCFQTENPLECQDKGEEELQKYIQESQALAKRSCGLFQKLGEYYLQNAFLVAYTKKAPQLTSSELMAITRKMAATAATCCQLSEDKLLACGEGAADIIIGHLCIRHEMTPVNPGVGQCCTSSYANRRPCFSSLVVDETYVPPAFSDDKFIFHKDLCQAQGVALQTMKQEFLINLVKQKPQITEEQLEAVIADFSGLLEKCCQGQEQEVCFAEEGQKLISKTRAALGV

[2] = system: human AFP (alpha-fetoprotein); conditions: International Application PCT/EP99/04201; cited from earlier work
rats = conditions: injected into rats; cited from earlier work
endothelial cells = conditions: cited from earlier work
[3] = system: antibody-forming cells (AFC) in the spleen; assay: Influence of compound on humoral immune response to sheep erythrocytes, C57B1/6 female mice (AFC in spleen, hemagglutinins); type: in vivo; conditions: for Amount of antibody-forming cells per 10^6 spleen cells / Amount of antibody-forming cells per spleen: M ± SEM; for Spleen index: with SRBC i.p.; for Amount of hemagglutinins: serum
[4] = system: antibody-forming cells (AFC) in the spleen; assay: Influence of human AFP/compound complex and compound alone on humoral immune response, C57B1/6 male mice; type: in vivo; conditions: compound alone
Experimental: as §1
0.15 ml of AFP/Compound 3 complex was administered intravenously to 6 mice males of C57B1/6 line (weight 18-22 g) in the dose of […] of AFP and 45.5 μg of compound 3 per capita. Simultaneously suspension of 5·10^7 sheep erythrocytes was injected intraperitoneally (0.2 ml per capita). In the group with compound 3 mice were injected intravenously by one in the dose of 45.5 μg. Animals of group with AFP received 9 μg of AFP. Mice of control group were injected intravenously with equal volume of saline. Complex AFP/Compound 3 effect on humoral immune response was analyzed by counting the quantity of AFC in the spleen according to Cunningham (per 10^6 spleen cells and per spleen).
as §2, with “AFP/Compound 2a” for “AFP/Compound 1”, “complex (1:100)” for “complex”, “compound 2a” for “compound 1”, “saline. The effect of the” for “saline. Complex”, “AFP/Compound 2a complex” for “AFP/Compound 1 effect”
0.15 ml of AFP/Compound 10 complex (1:200) was administered intravenously to 6 male mice of C57B1/6 line (weight 18-22 g) in the dose of 9 μg of AFP and 91 μg of compound 10 per capita. Simultaneously, a suspension of 5·10^7 sheep erythrocytes was injected intraperitoneally (0.2 ml per capita). In the group receiving compound 10 mice were injected intravenously by one in the dose of 91 μg. Animals in the group with AFP received 9 μg of AFP. Micein the control group were injected intravenously with an equal volume of saline. The effect of the AFP/Compound 10 complex on humoral immune response was analyzed by counting the quantity of AFC in the spleen according to Cunningham (per 10^6 spleen cells and per spleen).
0.15 ml of AFP/Compound 14 complex (1:200) was administered intravenously to 6 male mice of C57B1/6 line (weight 18-22 g) in the dose of 9 μg of AFP and 91 μg of compound 14 per capita. Simultaneously, a suspension of 5·10^7 sheep erythrocytes was injected intraperitoneally (0.2 ml per capita). In the group with compound 14 mice were injected intravenously by one in the dose of 91 μg. Animals of group with AFP received 9 μg of AFP. Mice in the control group were injected intravenously with an equal volume of saline. The effect of the AFP/Compound 14 complex on humoral immune response was analyzed by counting the quantity of AFC in the spleen according to Cunningham (per 10^6 spleen cells and per spleen).

[5] = 45.5 μg/mouse, i.v., 5th day, vs control

CCCCC/C=C\C/C=C\C/C=C\C/C=C\CCCC(=O)O [arachidonic acid]
Kd (human AFP): 16.7 nM | n (number of binding sites per protein molecule) (human AFP; three independent determinations, Scatchard): > 1.2

CC/C=C\C/C=C\C/C=C\C/C=C\C/C=C\CCCC(=O)N[C@H](C(=O)O)[C@@H](C)OP(=O)(O)O [Compound 15, N-(cis-5,8,11,14,17-eicosapentaenoyl)-O-phospho-L-threonine]
relative amount of AFC ([1]; 91 μg/mouse i.v.): 594.7±41.4 cells per 10^6 spleen cells | total AFC amount ([1]; 91 μg/mouse i.v.): 70.8±8.2 × 10^3

CC1=C(/C=C/C(C)=C/C=C/C(C)=C/C(=O)NCCOP(=O)(O)O)C(C)(C)CCC1 [Compound 1, N-(all-trans-Retinoyl)-O-phospho-2-aminoethanol]
relative amount of AFC ([1]; 45.5 μg/mouse i.v.): 413.1±31.5 cells per 10^6 spleen cells | total AFC amount ([1]; 45.5 μg/mouse i.v.): 38.4±3.7 × 10^3

CCCCC/C=C\C/C=C\C/C=C\C/C=C\CCCC(=O)NCCOP(=O)(O)O [Compound 5, N-arachidonoyl-o-phospho-2-aminoethanol]
Molecules of compound in the micelle reversibly linked to AFP (AFP): up to 300 molecules

CCCCC/C=C\C/C=C\C/C=C\C/C=C\CCCC(=O)NCCOP(=O)(O)O [Compound 5, N-(cis-5,8,11,14-eicosatetraenoyl)-O-phospho-2-aminoethanol]
molecules of N-AAP in micelle linked to AFP [2]: up to 300 molecules

CCCCCCCC/C=C\CCCCCCCC(N)=O [cis-9,10-octadecenoamide]
physiological sleep (rats): induced physiological sleep

CCCCCCCC/C=C\CCCCCCCCCCCC(N)=O [Erucamide, 13-docosenamide]
inflammatory effects (endothelial cells): does not promote proliferation of endothelial cells or induce inflammatory effects | proliferation of endothelial cells (endothelial cells): does not promote proliferation of endothelial cells

CC1=C(/C=C/C(C)=C/C=C/C(C)=C/C(=O)N[C@H](C(=O)O)[C@@H](C)OP(=O)(O)O)C(C)(C)CCC1 (relative stereo) [Compound 3, N-(all-trans-Retinoyl)-O-phospho-L-threonine]
Immunogenic activity ([3]; 45.5 μg/mouse): no immunogenic activity | Amount of antibody-forming cells per 10^6 spleen cells ([3]; 45.5 μg/mouse, i.v., 5th day): 472.2±52.4 cells per 10^6 spleen cells | Amount of antibody-forming cells per spleen ([3]; 45.5 μg/mouse, i.v., 5th day): 44.6±3.9 × 10^3 | Effect on relative amount of AFC (per 10^6 spleen cells) [3, 5]: +15.9 p > 00.05% | Effect on total AFC amount (per spleen) [3, 5]: +10.1 p > 0.05% | Effect on hemagglutinin titers ([3]; 45.5 μg/mouse, i.v., vs control): +4.8 p > 0.05% | Spleen index ([3]; 45.5 μg/mouse, i.v.): 6.1 ± 0.3 10^−3 | immunostimulating effect in vivo in micelle form ([3]; 91 μg/mouse): display immunostimulating effect in vivo | Amount of antibody-forming cells per 10^6 spleen cells ([3]; 91 μg/mouse, i.v., 5th day): 827.7±34.6 cells per 10^6 spleen cells | Amount of antibody-forming cells per spleen ([3]; 91 μg/mouse, i.v., 5th day): 60.3±4.1 × 10^3 | Amount of hemagglutinins ([3]; 91 μg/mouse, i.v.): 8.0±0.3 Log2 T | Spleen index ([3]; 91 μg/mouse, i.v.): 6.2 ± 0.2 10^−3 | Amount of antibody-forming cells per 10^6 spleen cells ([3]; 136.5 μg/mouse, i.v., 5th day): 961.3±56.5 cells per 10^6 spleen cells | Amount of antibody-forming cells per spleen ([3]; 136.5 μg/mouse, i.v., 5th day): 107.0±8.5 × 10^3 | Amount of hemagglutinins ([3]; 136.5 μg/mouse, i.v.): 8.7±0.3 Log2 T | Spleen index ([3]; 136.5 μg/mouse, i.v.): 6.8 ± 0.3 10^−3 | immunostimulating action ([3]; 91 and 136.5 μg/mouse): high immunostimulating action | Immunogenic activity ([4]; 45.5 μg/mouse): no immunogenic activity; also recorded: do not inhibit immunogenic activity | relative amount of AFC ([4]; 45.5 μg/mouse i.v., 5th day): 472.2±52.4 cells per 10^6 spleen cells | total AFC amount ([4]; 45.5 μg/mouse i.v., 5th day): 44.6±3.9 × 10^3

CCCCC/C=C\C/C=C\C/C=C\C/C=C\CCCC(=O)N[C@H](C(=O)O)[C@@H](C)OP(=O)(O)O [Compound 7, N-(cis-5,8,11,14-eicosatetraenoyl)-O-phospho-L-threonine]
relative amount of AFC ([1]; 91 μg/mouse i.v.): 574.9±39.6 cells per 10^6 spleen cells | total AFC amount ([1]; 91 μg/mouse i.v.): 60.4±5.4 × 10^3
